Test results from patent US20240174723A1, “STAPLED ANTIMICROBIAL PEPTIDES (STAMPS) AND USES THEREOF” (Lytica Therapeutics, Inc., priority 2021, published 2024).
In brackets after ≈: the same amount, converted by molar mass. Positions of bridges follow the written chain, without caps; N, C: chain ends. Non-standard residues stand in square brackets, D forms with d. Residues, ends and D or L forms follow the SMILES beside them. S5 = C=CCCC[C@](C)(N)C(=O)O; Dab = NCC[C@H](N)C(=O)O; Dap = NC[C@H](N)C(=O)O

Columns and labels:
[1] = system: S. aureus; assay type: cell-based, Staphylococcus aureus
Procedure: (§1) Antimicrobial Activity Assay: The following microbroth dilution protocol was adapted from CLSI to determine the minimum inhibitory concentration (MIC) of StAMPs. Briefly, Mueller-Hinton broth (MHB) or cation-adjusted Mueller-Hinton broth (MHB II) was prepared and autoclaved. Then, a colony of bacterial cells was picked and grown overnight in broth at 37° C. and then diluted and allowed to grow again for 3-4 hours. Serial dilutions of peptide stocks in water (10 μl) were prepared using clear round-bottom polypropylene 96-well plates. Then 90 μl of bacteria in broth was added to give a final inoculum of 5×10^5 CFU/ml. The plates were then covered with porous tape to reduce evaporation and incubated for 20-24 hours at 37° C. The MIC was the minimum peptide concentration at which no visible bacterial growth was observed.
(§2) Renal toxicity was measured after 90 minutes of incubation, while liver toxicity was measured after 48 hours of incubation with StAMPs. N/A=not tested. The following apply to all peptides (i.e., StAMPs) listed in Tables A-C: Crosslinks (X^1—X^2 and X^3—X^4): (alk); N-terminus: —NH2; C-terminus: amidated with —NH2; counterion: Cl^−. The following apply to all peptides (i.e., StAMPs) listed in Table D: Crosslinks (X^1—X^2 and X^3—X^4): (alk); N-terminus: —NH2; C-terminus: as shown in table; counterion: Cl^−.

[2] = system: A. baumannii; assay type: cell-based, Acinetobacter baumannii
Procedure: as §1, §2

[3] = in vitro; assay type: cell-based; conditions: human, Inhibitory Concentration at 50% Cytotoxicity (IC50) Human Liver Cells (HepG2)
Procedure: Cell culture: RPTEC were maintained in MEM media supplemented with growth factors. HEPG2 cell line was maintained in Eagle's Minimum Essential Medium (EMEM) supplemented with fetal bovine serum to a final concentration of 10%.
48 hours cytotoxicity assay: Cells were plated in a 96-well format, and after 4 hour incubation to allow attachment, serial dilutions of StAMPs from a 5 mg/mL water stock, or vehicle, were then added to the cells in a final volume of 100 μl. After incubating at 37° C. for 48 hours, 100 μl of CellTiter-Glo® reagent was added to the cells, and the plates were incubated 10 minutes at room temperature. Luminescence was then measured on a microplate reader.
as §2

[4] = system: K. pneumoniae; assay type: cell-based, Klebsiella pneumoniae
Procedure: as §1, §2

[5] = system: E. coli; assay type: cell-based, Escherichia coli
Procedure: as §1, §2

[6] = system: P. aeruginosa; assay type: cell-based, Pseudomonas aeruginosa
Procedure: as §1, §2
StAMP Micelle Formulation: DSPE-MPEG(2000) was suspended in buffered saline at 50-100 mg/mL overnight. StAMP stock solutions at 5-20 mg/mL in buffered saline were prepared and equal volumes of micelle and StAMP stock solution were mixed at the desired StAMP:Lipid ratio. Suspensions were allowed to sit for 5-10 minutes at room temperature before being used in in vitro and in vivo assays. […]

SMILES	Minimum Inhibitory Concentration (MIC) S. aureus [1] [µg/mL]	Minimum Inhibitory Concentration (MIC) A. baumannii [2] [µg/mL]	Minimum Inhibitory Concentration (MIC) K. pneumoniae [4] [µg/mL]	Minimum Inhibitory Concentration (MIC) E. coli [5] [µg/mL]	Minimum Inhibitory Concentration (MIC) P. aeruginosa [6] [µg/mL]	IC50 at 48 hours [3] [µg/mL]
CC(C)[C@@H]1NC(=O)[C@H](C(C)C)NC(=O)[C@@](C)(NC(=O)[C@H](C)NC(=O)[C@H](CCCCN)NC(=O)CNC(=O)[C@@H](Cc2ccccc2)NC(=O)[C@H](CCCCN)NC(=O)[C@H](CCCCN)NC(=O)[C@H](CCCCN)NC(=O)[C@H](CCCCN)NC(=O)[C@H](Cc2c[nH]cn2)NC(=O)[C@]2(C)CCCC=CCCC[C@](C)(NC(=O)CN)C(=O)NCC(=O)N[C@@H](CCCCN)C(=O)N[C@H](Cc3ccccc3)C(=O)N2)CCCC=CCCC[C@@](C)(C(=O)N[C@@H](C)C(=O)N[C@@H](CCCCN)C(=O)N[C@@H](CCCCN)C(N)=O)NC(=O)[C@H](CCC(=O)O)NC1=O [compound 28] (H-G[S5]GK[dF][S5]HKKKK[dF]GKA[S5]VVE[S5]AKK-NH2; staple 2-6, 16-20)	>64	16	>64	64	64	201 (≈ 76.9 µM)
CC(C)[C@@H]1NC(=O)[C@@](C)(NC(=O)[C@H](C)NC(=O)[C@H](CN)NC(=O)CNC(=O)[C@H](Cc2ccccc2)NC(=O)[C@H](CCCCN)NC(=O)[C@H](CCCCN)NC(=O)[C@H](CCCCN)NC(=O)[C@H](CCCCN)NC(=O)[C@H](CCCCN)NC(=O)[C@]2(C)CCCC=CCCC[C@](C)(NC(=O)CN)C(=O)NCC(=O)N[C@@H](CCCCN)C(=O)N[C@@H](Cc3ccccc3)C(=O)N2)CCCC=CCCC[C@@](C)(C(=O)N[C@@H](C)C(=O)N[C@@H](CCCCN)C(=O)N[C@@H](CCCCN)C(N)=O)NC(=O)[C@H](CCC(=O)O)NC(=O)CNC1=O [compound 50] (H-G[S5]GKF[S5]KKKKKFG[Dap]A[S5]VGE[S5]AKK-NH2; staple 2-6, 16-20)	>64	2	8	4	8	
CC(C)[C@@H]1NC(=O)[C@@](C)(NC(=O)[C@H](C)NC(=O)[C@H](CCCCN)NC(=O)CNC(=O)[C@H](Cc2ccccc2)NC(=O)[C@H](CCCCN)NC(=O)[C@H](CCCCN)NC(=O)[C@H](CCN)NC(=O)[C@H](CCCCN)NC(=O)[C@H](CCCCN)NC(=O)[C@]2(C)CCCC=CCCC[C@](C)(NC(=O)CN)C(=O)NCC(=O)N[C@@H](CCCCN)C(=O)N[C@@H](Cc3ccccc3)C(=O)N2)CCCC=CCCC[C@@](C)(C(=O)N[C@@H](C)C(=O)N[C@@H](CCCCN)C(=O)N[C@@H](CCCCN)C(N)=O)NC(=O)[C@H](CCC(=O)O)NC(=O)CNC1=O [compound 42] (H-G[S5]GKF[S5]KK[Dab]KKFGKA[S5]VGE[S5]AKK-NH2; staple 2-6, 16-20)	32	2	16	4	8	194 (≈ 76.5 µM)
CC(C)[C@@H]1NC(=O)[C@@](C)(NC(=O)[C@H](C)NC(=O)[C@H](CCCCN)NC(=O)CNC(=O)[C@H](Cc2ccccc2)NC(=O)[C@H](CCCCN)NC(=O)[C@H](CCCCN)NC(=O)[C@H](CCCCN)NC(=O)[C@H](CCCCN)NC(=O)[C@H](CCCCN)NC(=O)[C@]2(C)CCCC=CCCC[C@](C)(NC(=O)CN)C(=O)NCC(=O)N[C@@H](CCCCN)C(=O)N[C@@H](Cc3ccccc3)C(=O)N2)CCCC=CCCC[C@@](C)(C(=O)N[C@@H](C)C(=O)N[C@@H](CCCCN)C(=O)N[C@@H](CN)C(N)=O)NC(=O)[C@H](CCC(=O)O)NC(=O)CNC1=O [compound 52] (H-G[S5]GKF[S5]KKKKKFGKA[S5]VGE[S5]AK[Dap]-NH2; staple 2-6, 16-20)	>64	2	8	2	4	

The next lines start with results.

Minimum Inhibitory Concentration (MIC) S. aureus [1] [µg/mL]	Minimum Inhibitory Concentration (MIC) A. baumannii [2] [µg/mL]	Minimum Inhibitory Concentration (MIC) K. pneumoniae [4] [µg/mL]	Minimum Inhibitory Concentration (MIC) E. coli [5] [µg/mL]	Minimum Inhibitory Concentration (MIC) P. aeruginosa [6] [µg/mL]	SMILES	IC50 at 48 hours [3] [µg/mL]
>64	2	6	2	4	CC(C)[C@@H]1NC(=O)[C@@](C)(NC(=O)[C@H](C)NC(=O)[C@H](CCCCN)NC(=O)CNC(=O)[C@H](Cc2ccccc2)NC(=O)[C@H](CCCCN)NC(=O)[C@H](CCCCN)NC(=O)[C@H](CCCCN)NC(=O)[C@H](CN)NC(=O)[C@H](CCCCN)NC(=O)[C@]2(C)CCCC=CCCC[C@](C)(NC(=O)CN)C(=O)NCC(=O)N[C@@H](CCCCN)C(=O)N[C@@H](Cc3ccccc3)C(=O)N2)CCCC=CCCC[C@@](C)(C(=O)N[C@@H](C)C(=O)N[C@@H](CCCCN)C(=O)N[C@@H](CCCCN)C(N)=O)NC(=O)[C@H](CCC(=O)O)NC(=O)CNC1=O [compound 47] (H-G[S5]GKF[S5]K[Dap]KKKFGKA[S5]VGE[S5]AKK-NH2; staple 2-6, 16-20)	
>64	2	16	4	8	CC(C)[C@@H]1NC(=O)[C@@](C)(NC(=O)[C@H](C)NC(=O)[C@H](CCCCN)NC(=O)CNC(=O)[C@H](Cc2ccccc2)NC(=O)[C@H](CCCCN)NC(=O)[C@H](CN)NC(=O)[C@H](CCCCN)NC(=O)[C@H](CCCCN)NC(=O)[C@H](CCCCN)NC(=O)[C@]2(C)CCCC=CCCC[C@](C)(NC(=O)CN)C(=O)NCC(=O)N[C@@H](CCCCN)C(=O)N[C@@H](Cc3ccccc3)C(=O)N2)CCCC=CCCC[C@@](C)(C(=O)N[C@@H](C)C(=O)N[C@@H](CCCCN)C(=O)N[C@@H](CCCCN)C(N)=O)NC(=O)[C@H](CCC(=O)O)NC(=O)CNC1=O [compound 48] (H-G[S5]GKF[S5]KKK[Dap]KFGKA[S5]VGE[S5]AKK-NH2; staple 2-6, 16-20)	
>64	2	8	4	8	CC(C)[C@@H]1NC(=O)[C@@](C)(NC(=O)[C@H](C)NC(=O)[C@H](CCCCN)NC(=O)CNC(=O)[C@H](Cc2ccccc2)NC(=O)[C@H](CN)NC(=O)[C@H](CCCCN)NC(=O)[C@H](CCCCN)NC(=O)[C@H](CCCCN)NC(=O)[C@H](CCCCN)NC(=O)[C@]2(C)CCCC=CCCC[C@](C)(NC(=O)CN)C(=O)NCC(=O)N[C@@H](CCCCN)C(=O)N[C@@H](Cc3ccccc3)C(=O)N2)CCCC=CCCC[C@@](C)(C(=O)N[C@@H](C)C(=O)N[C@@H](CCCCN)C(=O)N[C@@H](CCCCN)C(N)=O)NC(=O)[C@H](CCC(=O)O)NC(=O)CNC1=O [compound 49] (H-G[S5]GKF[S5]KKKK[Dap]FGKA[S5]VGE[S5]AKK-NH2; staple 2-6, 16-20)	
>64	2	4	2	4	CC(C)[C@@H]1NC(=O)[C@@](C)(NC(=O)[C@H](C)NC(=O)[C@H](CCCCN)NC(=O)CNC(=O)[C@H](Cc2ccccc2)NC(=O)[C@H](CCCCN)NC(=O)[C@H](CCCCN)NC(=O)[C@H](CCCCN)NC(=O)[C@H](CCCCN)NC(=O)[C@H](CCCCN)NC(=O)[C@]2(C)CCCC=CCCC[C@](C)(NC(=O)CN)C(=O)NCC(=O)N[C@@H](CCCCN)C(=O)N[C@@H](Cc3ccccc3)C(=O)N2)CCCC=CCCC[C@@](C)(C(=O)N[C@@H](C)C(=O)N[C@@H](CN)C(=O)N[C@@H](CCCCN)C(N)=O)NC(=O)[C@H](CCC(=O)O)NC(=O)CNC1=O [compound 51] (H-G[S5]GKF[S5]KKKKKFGKA[S5]VGE[S5]A[Dap]K-NH2; staple 2-6, 16-20)	
